What was measured:
IKZF2 (Helios) = assay: IKZF2 reporter degradation assay (HEK 293T IKZF2-mNeonGreen reporter cell line); format: cell-based, human; conditions: 24 hour incubation; for IKZF2 % Degradation @ 1 μM: 1 μM compound
Method in brief: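 HEK 293T lines stably expressing each IKZF-GGGGS×3-mNeonGreen-P2A-mScarlet reporter, 4000 cells/well in FluoroBrite medium, treated with compound (≤0.5% DMSO) for 24 h at 37 °C. Imaging measured percent mNeonGreen-positive cells, with mScarlet used for segmentation; DC50 from four-parameter logistic fit.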

IKZF3 (Aiolos) = assay: IKZF3 reporter degradation assay (HEK 293T IKZF3-mNeonGreen reporter cell line); format: cell-based, human; conditions: HEK 293T IKZF3 reporter cells, 24 hour incubation
Description: (§1) Polycistronic plasmids were constructed for the mammalian expression of fluorescent reporter fusions of human transcription factors IKZF1 (Ikaros), IKZF2 (Helios), and IKZF3 (Aiolos). The respective protein sequences had their C-terminal end joined to a GGGGS linker repeated three times followed by mNeonGreen, P2A sequence, and mScarlet. The DNA sequences of the open reading frames are as follows:
(§2) IKZF1, IKZF2, and IKZF3 constructs were cloned into the UCOE Hygromycin expression vectors (Millipore Sigma). Reporter constructs were transfected using cationic lipid reagents into adherent HEK 293T cells and stable integrants were selected by treatment with 200 μg/mL hygromycin B. Clonal populations were obtained from the population of stable integrants either by limiting dilution or fluorescence activated cell sorting.
(§3) The clonal stable cell lines were maintained under constant 200 μg/mL hygromycin B selection while being passaged for use in the degradation assays. […] The fluorescence intensity of the IKZF1/2/3-mNeonGreen (FITC channel) and mScarlet (PE channel) reporters were routinely analyzed by flow cytometry to confirm consistent expression levels between experiments.
(§4) The IKZF1/IKZF2/IKZF3 degradation assays were carried out by harvesting the HEK 293T reporter cell lines and resuspending the cells in media formulated for reduced background fluorescence (FluoroBrite; Thermo Fisher). The respective cell lines were seeded at a density of 4000 cells/well into black-walled 384-well optical grade assay tissue culture plates. The cells were incubated overnight at 37° C. to allow for attachment to the assay plate. Dilutions of the compounds were prepared in DMSO from 10 mM compound stocks. The assay plates were treated with appropriate concentrations of the compounds by dispensing the DMSO dilutions in quadruplicate wells with an upper limit of 0.5% final DMSO.
(§5) After 24 hour incubation with the compounds, the assay plates were imaged on an ImageXpress Pico microscopy system (cells maintained at 37° C. during imaging) to obtain the fluorescent readouts. The assay plates were imaged in the FITC and Tetramethylrhodamine (TRITC) channels to obtain the mNeonGreen fluorescence intensity (reporter degradation data) and mScarlet fluorescence intensity (for cell segmentation). 293T-IKZF1 and 293T-IKZF3 reporter cell lines were imaged with exposures of 500 milliseconds (ms) for both FITC and TRITC channels, while the 293T-IKZF2 reporter cell line was imaged with exposures of 1000 ms for FITC and 1250 ms for TRITC. The resulting data was analyzed with Cell Reporter Xpress software using the 2-channel cell scoring analysis with a “percent positive” readout. The TRITC channel was selected for the “nuclei” segmentation with a threshold of 20 while the FITC channel was selected for the “Marker 1” segmentation and a threshold of 100 for the IKZF1 and IKZF3 reporter lines. […] The minimum segmentation width was set to 6 micrometers and the maximum segmentation width was set to 15 micrometers for all cell lines. The DCs calculations were determined by regression to best fit four-parameter logistic curves using GraphPad Prism.

IKZF1 (Ikaros) = assay: IKZF1 reporter degradation assay (HEK 293T IKZF1-mNeonGreen reporter cell line); format: cell-based, human; conditions: HEK 293T IKZF1 reporter cells, 24 hour incubation
Description: as §1, §2, §3, §4, §5

GSPT1 = GSPT1 (Homo sapiens (Human), UniProt P15170+Q96SW2); assay: GSPT1 reporter degradation assay (HEK293 hGSPT1 HiBiT-tagged cells); format: cell-based; conditions: 24 hour incubation
Chain of GSPT1 (P15170 whole entry): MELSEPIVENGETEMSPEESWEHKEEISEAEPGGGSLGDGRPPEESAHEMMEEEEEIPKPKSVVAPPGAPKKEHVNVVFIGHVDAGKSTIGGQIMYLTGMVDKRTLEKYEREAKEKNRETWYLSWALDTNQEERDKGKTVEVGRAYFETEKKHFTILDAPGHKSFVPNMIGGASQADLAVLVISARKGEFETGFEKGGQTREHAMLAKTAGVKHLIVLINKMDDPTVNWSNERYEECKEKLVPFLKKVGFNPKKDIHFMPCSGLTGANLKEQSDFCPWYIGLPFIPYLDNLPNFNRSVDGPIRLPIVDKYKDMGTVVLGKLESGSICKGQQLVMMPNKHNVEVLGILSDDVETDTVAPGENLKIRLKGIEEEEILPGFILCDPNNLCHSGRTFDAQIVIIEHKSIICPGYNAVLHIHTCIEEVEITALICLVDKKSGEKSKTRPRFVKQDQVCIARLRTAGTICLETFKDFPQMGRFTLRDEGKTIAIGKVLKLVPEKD
Chain of GSPT1 (Q96SW2 whole entry): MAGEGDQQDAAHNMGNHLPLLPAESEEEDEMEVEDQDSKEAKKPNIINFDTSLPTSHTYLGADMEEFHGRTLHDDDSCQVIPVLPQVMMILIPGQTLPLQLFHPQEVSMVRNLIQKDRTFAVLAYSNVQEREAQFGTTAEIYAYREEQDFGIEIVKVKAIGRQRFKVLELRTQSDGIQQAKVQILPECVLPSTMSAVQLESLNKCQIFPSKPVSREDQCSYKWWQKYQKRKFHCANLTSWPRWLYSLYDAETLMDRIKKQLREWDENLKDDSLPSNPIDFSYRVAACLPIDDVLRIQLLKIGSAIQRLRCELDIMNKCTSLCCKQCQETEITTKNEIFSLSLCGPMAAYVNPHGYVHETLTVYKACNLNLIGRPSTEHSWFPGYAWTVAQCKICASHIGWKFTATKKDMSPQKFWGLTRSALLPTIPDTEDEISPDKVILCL
Chain of GSPT1 (Q16531 whole entry partner): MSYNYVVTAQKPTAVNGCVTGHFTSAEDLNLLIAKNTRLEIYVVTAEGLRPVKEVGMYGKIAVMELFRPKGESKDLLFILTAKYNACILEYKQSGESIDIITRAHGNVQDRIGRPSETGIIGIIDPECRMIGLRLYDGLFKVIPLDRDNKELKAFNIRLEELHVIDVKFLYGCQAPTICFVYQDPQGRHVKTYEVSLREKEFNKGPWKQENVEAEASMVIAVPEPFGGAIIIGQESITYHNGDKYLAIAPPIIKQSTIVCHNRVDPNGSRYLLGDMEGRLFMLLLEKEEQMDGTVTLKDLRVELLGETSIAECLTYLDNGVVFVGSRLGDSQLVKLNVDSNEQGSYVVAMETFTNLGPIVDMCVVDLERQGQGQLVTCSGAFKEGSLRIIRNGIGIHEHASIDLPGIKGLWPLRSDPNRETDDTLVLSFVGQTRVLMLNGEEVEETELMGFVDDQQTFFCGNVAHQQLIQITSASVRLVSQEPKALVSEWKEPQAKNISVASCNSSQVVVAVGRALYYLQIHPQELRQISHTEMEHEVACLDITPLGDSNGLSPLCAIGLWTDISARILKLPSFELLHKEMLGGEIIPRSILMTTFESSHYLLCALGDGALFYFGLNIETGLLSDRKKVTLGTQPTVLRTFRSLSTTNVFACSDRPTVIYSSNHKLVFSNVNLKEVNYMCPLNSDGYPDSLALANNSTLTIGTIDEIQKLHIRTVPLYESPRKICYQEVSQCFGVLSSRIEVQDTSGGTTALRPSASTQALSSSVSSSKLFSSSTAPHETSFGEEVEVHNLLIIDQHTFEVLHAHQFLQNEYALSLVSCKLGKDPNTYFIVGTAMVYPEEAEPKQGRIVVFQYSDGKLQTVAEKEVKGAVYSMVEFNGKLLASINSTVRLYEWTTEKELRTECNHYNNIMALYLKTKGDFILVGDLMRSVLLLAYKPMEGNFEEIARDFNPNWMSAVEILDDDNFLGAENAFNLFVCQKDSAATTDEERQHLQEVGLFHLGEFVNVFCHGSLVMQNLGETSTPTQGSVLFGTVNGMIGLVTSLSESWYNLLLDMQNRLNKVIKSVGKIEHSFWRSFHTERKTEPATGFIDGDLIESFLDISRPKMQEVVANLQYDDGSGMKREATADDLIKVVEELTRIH
Protocol: HEK293_hGSPT1_HiBiT-tagged cells were generated using CRISPR-Cas12a technology. Briefly, ˜400,000 HEK293 cells were transiently co-transfected with precomplexed ribonuclear proteins (RNPs) consisting of 80 pmol of crRNA (IDT), 62 pmol of Cas12a protein (IDT), 3 μg of ssODN donor (IDT; AltR® modifications), 78 pmol of electroporation enhancer (IDT), and 200 ng of pMaxGFP (Lonza). The transfection was performed via nucleofection (Lonza, 4D-Nucleofector X-unit) using solution P3 and program CM-130 in a (20 μL) cuvette. Five days post-nucleofection, cells were single-cell-sorted for GFP+(transfected) cells by FACs in 96-well plates and clonally selected. Clones were screened and verified for the desired modification via targeted deep sequencing using gene-specific primers with partial Illumina adapter overhangs as previously described. In brief, clonal cell pellets were harvested, lysed, and used to generate gene-specific amplicons with partial Illumina adapters in PCR #1. Amplicons were indexed in PCR #2 and pooled with other targeted amplicons for other loci to create sequence diversity. Additionally, 10% PhiX sequencing control V3 (Illumina) was added to the pooled amplicon library prior to running the sample on a Miseq Sequencer System (Illumina) to generate paired 2×250 bp reads. Samples were demultiplexed using the index sequences, fastq files were generated, and NGS analysis was performed using CRIS.py. Final clones were authenticated using the PowerPlex fusion system (Promega) and tested negative for mycoplasma by the MycoAlert™Plus mycoplasma detection kit (Lonza).
Editing construct sequences and screening primers are outlined below (sequence from 5′ to 3′). hGSPT1Cas12acrRNA, CAGE635.GSPT1.g1: […] (SEQ ID NO: 4); CAGE635.g1.anti.ssODN: ttcctcacagtattgtgcagggtcatcaagaaaatgctta[…] CAGCCGCTCACgtcCttctctggaaccagtttcagaacttttccaattgcaatggtcttacctagaaatgaaattttaa (HiBiT tag and silent blocking modifications to prevent Cas12a recutting after integration are in upper case) (SEQ ID NO: 5); CAGE635.hGSPT1.DS.F: […] (SEQ ID NO: 6); CAGE635.hGSPT1.DS.R: GTGAA GTAGGCTTCTGCAGTC (SEQ ID NO: 7).
The GSPT1 degradation assay was carried out by harvesting the HEK 293T reporter cell lines and resuspending the cells in media formulated for reduced background fluorescence (FluoroBrite; Thermo Fisher). The respective cell lines were seeded at a density of 8,000 cells/well into white-opaque 384-well optical grade assay tissue culture plates (Greiner 781080-20). The cells were incubated overnight at 37° C. to allow for attachment to the assay plate. Dilutions of the compounds were prepared in DMSO from 10 mM compound stocks. Test compounds were added in a 10-point dilution series (typically 10 μM to […]) using a TECAN D300e Digital Dispenser with an upper limit of 0.5% final DMSO. Plates were centrifuged at 320×g for 2 minutes at room temperature, and subsequently incubated at 37° C.
After 24 hour incubation with the compounds, the plates were allowed to cool to room temperature for 10 minutes. 30 μL of HiBiT lytic buffer+1:50 HiBiT substrate Solution were added to each well. Plates were centrifuged at 320×g for 2 minutes at room temperature and then incubated with shaking at room temperature for 10 minutes covered with foil. Plates were read on a CLARIOstar microplate reader (BMG LabTech), measuring at 450 nm (donor emission) and 610 nm or 630 nm (acceptor emission). The DC50 values were determined by regression to best fit four-parameter logistic curves using GraphPad Prism.

[1] = target: human E3 ligase component cereblon (CRBN) (Homo sapiens (Human), UniProt Q96SW2); assay: Cereblon (CRBN) target engagement, NanoBRET TE Intracellular E3 Ligase Assay in transfected HEK-293T cells; conditions: read-out: CRBN Binding EC50
Chain of human E3 ligase component cereblon (CRBN) (Q96SW2 whole entry): as the sequence (Q96SW2 whole entry) above
Chain of human E3 ligase component cereblon (CRBN) (Q16531 whole entry partner): as the sequence (Q16531 whole entry partner) above
Method in brief: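 Live HEK-293T cells co-transfected overnight with NanoLuc-CRBN (CRBN at NanoLuc C-terminus) and DDB1 vectors (10:990 ng) were given CRBN tracer and an 11-point compound series for 2 h at 37° C. BRET read at 450/610 nm with extracellular NanoLuc inhibitor present; IC50 from four-parameter logistic fit.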

[2] = HEK 293T IKZF2-mNeonGreen reporter

DC50 (IKZF2 (Helios); HEK 293T IKZF2 reporter cells) [µM]	DC50 (IKZF3 (Aiolos)) [µM]	DC50 (IKZF1 (Ikaros)) [µM]	DC50 (GSPT1) [µM]	Compound	IKZF2 % Degradation @ 1 μM (IKZF2 (Helios); HEK 293T IKZF2 reporter cells) [%]	IKZF2 % Degradation @ 1 μM (IKZF2 (Helios); [2]) [%]	EC50 [1] [µM]
0.005	> 30	> 30	–	O=C1CCC(N2Cc3cc(O[C@H]4CCCC[C@@H]4N4CC(c5ccccc5F)C4)ccc3C2=O)C(=O)N1 (stereo in doubt) [Compound 27]	82.1	–	–
0.292	> 30	> 30	–	O=C1CC[C@H](N2Cc3cc(O[C@@H]4CCCC[C@H]4N4CC(c5ccccc5)C4)ccc3C2=O)C(=O)N1 [Compound 14, (S)-3-(1-oxo-5-(((1R,2R)-2-(3-phenylazetidin-1-yl)cyclohexyl)oxy)isoindolin-2-yl)piperidine-2,6-dione]	33.5	–	–
0.004	> 30	> 30	–	O=C1CCC(N2Cc3cc(O[C@H]4CCCC[C@@H]4N4CC(c5ccccc5Cl)C4)ccc3C2=O)C(=O)N1 (stereo partly drawn) [Compound 15, 3-(5-(((1S,2S)-2-(3-(2-chlorophenyl)azetidin-1-yl)cyclohexyl)oxy)-1-oxoisoindolin-2-yl)piperidine-2,6-dione]	78.9	–	–
0.004	> 30	> 30	–	COc1ccccc1C1CN([C@H]2CCCC[C@@H]2Oc2ccc3c(c2)CN(C2CCC(=O)NC2=O)C3=O)C1 (stereo partly drawn) [Compound 19, 3-(5-(((1S,2S)-2-(3-(2-methoxyphenyl)azetidin-1-yl)cyclohexyl)oxy)-1-oxoisoindolin-2-yl)piperidine-2,6-dione]	84.5	–	–
0.005	> 30	> 30	> 30	O=C1CCC(N2Cc3cc(O[C@H]4CCCC[C@@H]4N4CC(c5ccc(F)c(F)c5)C4)ccc3C2=O)C(=O)N1 (stereo partly drawn) [Compound 23, 3-(5-(((1S,2S)-2-(3-(3,4-difluorophenyl)azetidin-1-yl)cyclohexyl)oxy)-1-oxoisoindolin-2-yl)piperidine-2,6-dione]	79.2	–	–
0.0005	> 30	> 30	–	O=C1CCC(N2Cc3cc(O[C@H]4CCCC[C@@H]4N4CC(c5ccc(-n6cccn6)cc5)C4)ccc3C2=O)C(=O)N1 (stereo partly drawn) [Compound 31, 3-(5-(((1S,2S)-2-(3-(4-(1H-pyrazol-1-yl)phenyl)azetidin-1-yl)cyclohexyl)oxy)-1-oxoisoindolin-2-yl)piperidine-2,6-dione]	83.3	–	–
–	–	–	> 30	O=C1CCC(N2Cc3cc(O[C@H]4CCCC[C@@H]4N4CC(c5ccccc5)C4)ccc3C2=O)C(=O)N1 (stereo partly drawn) [Compound 127, 3-(1-oxo-5-(((1S,2S)-2-(3-phenylazetidin-1-yl)cyclohexyl)oxy)isoindolin-2-yl)piperidine-2,6-dione]	–	77.9	–

Second part, the compound before the results:

Compound	DC50 (IKZF2 (Helios); HEK 293T IKZF2 reporter cells) [µM]	DC50 (IKZF3 (Aiolos)) [µM]	DC50 (IKZF1 (Ikaros)) [µM]	DC50 (GSPT1) [µM]	IKZF2 % Degradation @ 1 μM (IKZF2 (Helios); HEK 293T IKZF2 reporter cells) [%]	IKZF2 % Degradation @ 1 μM (IKZF2 (Helios); [2]) [%]	EC50 [1] [µM]
O=C1CCC(N2Cc3cc(O[C@H]4CCCC[C@@H]4N4CCC(c5ccccc5)C4)ccc3C2=O)C(=O)N1 (stereo partly drawn) [Compound 1, 3-(1-oxo-5-(((1S,2S)-2-(3-phenylpyrrolidin-1-yl)cyclohexyl)oxy)isoindolin-2-yl)piperidine-2,6-dione]	0.024	> 30	> 30	> 30	79.9	–	–
O=C1CC[C@H](N2Cc3cc(O[C@H]4CCCC[C@@H]4N4CC(c5ccccc5)C4)ccc3C2=O)C(=O)N1 [Compound 10, (S)-3-(1-oxo-5-(((1S,2S)-2-(3-phenylazetidin-1-yl)cyclohexyl)oxy)isoindolin-2-yl)piperidine-2,6-dione]	0.006	> 30	> 30	> 30	78.7	–	–
O=C1CCC(N2Cc3cc(O[C@@H]4CCCC[C@H]4N4CC(c5ccccc5)C4)ccc3C2=O)C(=O)N1 (stereo partly drawn) [Compound 11, 3-(1-oxo-5-(((1R,2R)-2-(3-phenylazetidin-1-yl)cyclohexyl)oxy)isoindolin-2-yl)piperidine-2,6-dione]	> 30	> 30	> 30	–	–	–	–
O=C1CCC(N2Cc3cc(O[C@@H]4CCCC[C@@H]4N4CC(c5ccccc5)C4)ccc3C2=O)C(=O)N1 (stereo partly drawn) [Compound 13, 3-(1-oxo-5-(((1R,2S)-2-(3-phenylazetidin-1-yl)cyclohexyl)oxy)isoindolin-2-yl)piperidine-2,6-dione]	> 30	> 30	> 30	–	–	–	–
O=C1CCC(N2Cc3cc(O[C@H]4CCCC[C@H]4N4CC(c5ccccc5)C4)ccc3C2=O)C(=O)N1 (stereo partly drawn) [Compound 128, 3-(1-oxo-5-(((1S,2R)-2-(3-phenylazetidin-1-yl)cyclohexyl)oxy)isoindolin-2-yl)piperidine-2,6-dione]	–	–	–	–	–	<15	0.018
Rac-3-(5-(((trans)-2-(3-hydroxy-3-phenylazetidin-1-yl)cyclohexyl)oxy)-1-oxoisoindolin-2-yl)piperidine-2,6-dione [Compound 96]	–	–	–	–	–	78.9	0.042

— US20240246935A1 (Plexium, Inc., priority 2021, published 2024)
